Experimental data from PMC9962283, “The Plant Derived 3-3′-Diindolylmethane (DIM) Behaves as CB2 Receptor Agonist in Prostate Cancer Cellular Models” (International Journal of Molecular Sciences, 2023).
Entries after “also recorded” stand apart in the source; their conditions may differ.

Key:
PC3 cells = test: Cell viability (MTT) assay in PC3 cells; format: cell-based, human; settings: 24 h, DIM alone
Procedure: (§1) Human prostate cancer cell lines, LNCaP and PC3, were obtained from the European Collection of Animal Cell Cultures. These were cultured in RPMI 1640 medium (Merck Life Science Ltd., Gillingham, UK) containing 10% (vol:vol) fetal bovine serum and 1% (vol:vol) Penicillin–Streptomycin Solution (10,000 U/mL penicillin and 10 mg/mL streptomycin in 0.9% sodium chloride (Merck Life Science Ltd., Gillingham, UK).
(§2) A standard 3-(4,-5-dimethylthiazol-2-yl)-2,-5-diphenyl tetrazolium bromide (MTT) dye reduction assay was used to assess compounds. Briefly, cells were plated in a flat-bottomed 96-well plate at seeding densities of 6 × 10^3 cells per well for LNCaP cells and 5 × 10^3 cells per well for PC3 cells. Cells were treated the following day with the appropriate agents for 24 h. Following the incubation period, the MTT solution (5 mg/mL in phosphate-buffered saline) was added and incubated for 4 h. The contents of the wells were removed and replaced with 200 μL DMSO to dissolve the MTT formazan crystals. The plates were immediately read at 570 nm in a multi-well plate reader (DynaTech MR5000; Dynex Technologies Ltd., Chantilly, VA, USA).
(§3) Values for half of the maximal effective concentration required to elicit a response (EC50), or for the half maximal inhibitory concentration (IC50) required to inhibit a response, as well as for maximal effect (Emax), standard error of the mean (S.E.M.) and 95% confidence limits of EC50 and IC50, have been calculated by nonlinear regression analysis using the equation for a sigmoid concentration–response curve (GraphPad Prism v5.0, San Diego, CA, USA). Paired Student’s t-test or one-way ANOVA analysis of variance (with Tukey’s post hoc analysis) was used where appropriate for cell viability and western blotting data. A value of p < 0.05 was taken as being significant.

[1] = tested on: cannabinoid CB1 or CB2 receptors (PC3 cell membranes); test: [35S]GTPγS binding in PC3 cell membranes; format: biochemical, human; settings: for EC50: agonist alone, read-out: EC50, stimulation of [35S]GTPγS binding
Procedure: (§4) Binding assays with [^35S]GTPγS were performed with PC3 or LNCaP cell membranes. Both PC3 and LNCaP cells were removed from flasks by scraping and then frozen as a pellet at −20 °C until required. Before use in a radioligand-binding assay, cells were defrosted, diluted in Tris buffer (50 mM Tris–HCl, 50 mM Tris-Base) and homogenized. Protein assays were performed using a Bio-Rad Dc kit (Bio-Rad©, Watford, UK).
(§5) The measurement of ligand-stimulated [^35S]GTPγS binding to cannabinoid CB1 or CB2 receptors was adapted from methods described previously. The assays were carried out with GTPγS-binding buffer (50 mM Tris–HCl, 50 mM Tris-Base, 5 mM MgCl2, 1 mM ethylenediaminetetraacetic acid, 100 mM NaCl, 1 mM dithiothreitol and 0.1% bovine serum albumin) in the presence of [^35S]GTPγS and GDP, in a final volume of 500 μL. Binding was initiated by the addition of [^35S]GTPγS to the wells. Non-specific binding was measured in the presence of 30 μM GTPγS. The drugs were incubated in the assay for 60 min at 30 °C. The reaction was terminated by a rapid vacuum filtration method using Tris-binding buffer, as described previously, and the radioactivity was quantified by liquid scintillation spectrometry. In all the [^35S]GTPγS-binding assays, we used 0.1 nM [^35S]GTPγS, 30 μM GDP and a protein concentration of 40 μg per well for PC3 and LNCaP cell membranes. Compounds were stored at −20 °C in DMSO.
Paired Student’s t-test or one-way ANOVA analysis of variance (with Tukey’s post hoc analysis) was used where appropriate for cell viability and western blotting data. A value of p < 0.05 was taken as being significant.

[2] = tested on: cannabinoid CB1 or CB2 receptors (LNCaP cell membranes); test: [35S]GTPγS binding in LNCaP cell membranes; format: biochemical, human; settings: agonist alone, read-out: EC50, stimulation of [35S]GTPγS binding
Procedure: as §4
as §5, with “DMSO. […]” for “DMSO.”

[3] = tested on: cleaved caspase 3 (CASP-3); test: Western blot of cleaved caspase 3 levels in PC3 cells; format: cell-based, human
Procedure: (§6) Cells were homogenized in lysis buffer [20 mM Tris, 0.25 M sucrose, 10 mM ethyleneglycol-bis(aminoethylether)-tetraacetic acid, 2 mM ethylenediaminetetraacetic acid, 1 mM sodium orthovanadate, 25 mM sodium β-glycerophosphate and 50 mM sodium fluoride; pH 7.5]. Prior to use, 0.1% (vol:vol), protease Inhibitor Cocktail (Merck Life Science Ltd, Gillingham, UK) was added. A total of 20 μg of protein was electrophoresed through a precast 16% polyacrylamide gel (Thermo Fisher, Oxford, UK) for 2 h and the separated proteins were transferred to nitrocellulose membranes (Bio-Rad, UK), then blocked with 5% (wt:vol) skimmed milk in Tris-buffered saline with 0.1% (vol:vol) Tween 20 (TBST solution) at room temperature and incubated with 1:200 dilution of anti-pAKT (Ser473) antibody (Merck Life Science Limited, Watford, Hertfordshire UK) or 1:200 cleaved-CASP-3 antibody (Insight Biotechnology, UK) at 4 °C overnight. β-Actin (1:20,000) was used as an internal loading control to normalize between lanes during densitometry. The appropriate secondary antibody for pAKT (anti-mouse), cleaved-CASP-3 (anti-mouse) was used at a concentration of 1:5000 (Insight Biotechnology Ltd, Wembley, Middlesex, UK) and incubated at room temperature for 1 h. […]

CB1 receptors = tested on: CB1 receptors; design: method as in PMID 19286662; settings: hCB1/CB2-CHO transfected cells; cited from earlier work
phosphor-AKT (Ser473) = test: Western blot of phospho-AKT (Ser473) levels in PC3 cells; format: cell-based, human
Procedure: as §6

CB2 receptors = tested on: CB2 receptors; design: method as in PMID 19286662; settings: hCB1/CB2-CHO transfected cells, β-arrestin assay; cited from earlier work
LNCaP cells = test: Cell viability (MTT) assay in LNCaP cells; format: cell-based, human; settings: 24 h, DIM alone
Procedure: as §1, §2, §3

[4] = tested on: FSK-induced cAMP production in PC3 cells; test: Cyclic AMP assay (HitHunter), FSK-induced cAMP production in PC3 cells; format: cell-based, human; settings: for Imax, inhibition of FSK-induced cAMP production / pIC50, inhibition of FSK-induced cAMP production / IC50: agonist alone; for IC50: read-out: IC50, inhibition of FSK-induced cAMP production
Procedure: The assays were performed using the HitHunter® cAMP assay kit (Eurofins DiscoverX Products, Celle-L’Evescault, France) according to the vendor’s protocol and previous studies. Briefly, cells were detached using cell dissociation buffer, counted and seeded at 2 × 10^4 cells per well in […] of complete medium onto white 96-well plates and incubated at 37 °C and 5% CO2 for approximately 24 h before running the experiment. The assays and the drug dilutions were performed in a 1:1 mixture of DMEM and Ham’s F12 medium without phenol red, containing […] of rolipram and forskolin (FSK; 7b-acetoxy-8,13-epoxy-1a,6b,9 atrihydroxylabd-14-en-11-one). Before running the assay, the medium was discarded, and cells were washed with D-MEM/F-12 medium. Then, cells were treated with the assigned drugs (30 μL per well) and incubated for 30 min at 37 °C and 5% CO2. Finally, cAMP standards and the appropriate mixture of kit components were added (as described by the manufacturer, Eurofins DiscoverX Products, Celle-L’Evescault, France). Plates were incubated overnight at room temperature in the dark. Chemiluminescent signals were detected on a Synergy HT Multi-Mode Microplate Reader (ThermoFisher Scientific, Loughborough, UK).
as §3

**Q.** Which results are given for `c1ccc2c(Cc3c[nH]c4ccccc34)c[nH]c2c1` [DIM, 3-3′-Diindolylmethane]?
**A.** IC50 (PC3 cells): 38.9 µM; Imax, cell viability (PC3 cells): 8.50; pIC50, cell viability (PC3 cells): 4.410; Agonist behaviour in [35S]GTPγS binding [1]: full agonist behavior; EC50 [1]: 0.00928 µM; EC50 [2]: 0.0321 µM; Cleaved CASP-3 level ([3]; DIM 50 nM): significant increase; Cleaved CASP-3 level ([3]; DIM 50 µM): significant increase; Functional behaviour on CB1 receptors (CB1 receptors): slight inverse agonist; pAKT level (phosphor-AKT (Ser473); DIM 50 nM): no significant reduction; pAKT level (phosphor-AKT (Ser473); DIM 50 µM): strong and significant reduction; Functional behaviour on CB2 receptors (CB2 receptors): partially activate; also recorded: partial agonist; IC50 (LNCaP cells): 85 µM; Imax, cell viability (LNCaP cells): -16.63; pIC50, cell viability (LNCaP cells): 4.071; Imax, inhibition of FSK-induced cAMP production [4]: 17.36; pIC50, inhibition of FSK-induced cAMP production [4]: 7.870; IC50 [4]: 0.0135 µM

**Q.** Which “Effect of CB1 antagonist on DIM's inhibition of FSK-induced cAMP production” value [4] does the source give for `Cc1c(C(=O)NN2CCCCC2)nn(-c2ccc(Cl)cc2Cl)c1-c1ccc(Cl)cc1` [SR1] here?
**A.** no effect

**Q.** Which EC50 [1] does the source give for `CCCCCCC(C)(C)c1ccc([C@@H]2C[C@H](O)CC[C@H]2CCCO)c(O)c1` [CP 55,940] here?
**A.** 0.00614 µM

**Q.** What about the EC50 [2] of the same molecule?
**A.** 0.00256 µM

**Q.** And the “Imax, inhibition of FSK-induced cAMP production” value [4]?
**A.** 9.74

**Q.** And the “pIC50, inhibition of FSK-induced cAMP production” value [4]?
**A.** 8.314

**Q.** What about the IC50 [4] of the same molecule?
**A.** 0.00485 µM
